In ChEMBL document CHEMBL1129789, “Dopamine D3 and D4 receptor antagonists: synthesis and structure--activity relationships of (S)-(+)-N-(1-Benzyl-3-pyrrolidinyl)-5-chloro-4- [(cyclopropylcarbonyl) amino]-2-methoxybenzamide (YM-43611) and related compounds” (J Med Chem, 1996):

Columns and labels:
D(1B) dopamine receptor = D(1B) dopamine receptor (Homo sapiens, UniProt P21918)
[1] = target: T1, 5-hydroxytryptamine receptor 3A (Mus musculus, UniProt P23979)
T1 sequence (P23979 whole entry): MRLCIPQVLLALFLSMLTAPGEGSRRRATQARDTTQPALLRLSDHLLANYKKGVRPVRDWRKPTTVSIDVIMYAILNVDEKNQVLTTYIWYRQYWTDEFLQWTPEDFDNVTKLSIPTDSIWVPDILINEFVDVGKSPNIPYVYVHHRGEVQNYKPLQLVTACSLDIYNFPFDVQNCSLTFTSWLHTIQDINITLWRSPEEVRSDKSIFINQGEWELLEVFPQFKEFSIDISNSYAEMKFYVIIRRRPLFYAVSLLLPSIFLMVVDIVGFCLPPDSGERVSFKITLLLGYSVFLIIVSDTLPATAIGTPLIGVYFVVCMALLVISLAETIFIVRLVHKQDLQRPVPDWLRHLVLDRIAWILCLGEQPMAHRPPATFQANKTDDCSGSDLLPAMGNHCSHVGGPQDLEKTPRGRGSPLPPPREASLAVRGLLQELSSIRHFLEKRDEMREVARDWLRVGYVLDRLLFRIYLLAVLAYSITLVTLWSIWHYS

[2] = target: T2, Muscarinic acetylcholine receptor M2 (Rattus norvegicus, UniProt P10980); experiment: Compound was tested for the Binding affinity against rat heart Muscarinic acetylcholine receptor M2 by Radio ligand [3H]quinuclidinyl binding assay
T2 sequence (P10980 whole entry): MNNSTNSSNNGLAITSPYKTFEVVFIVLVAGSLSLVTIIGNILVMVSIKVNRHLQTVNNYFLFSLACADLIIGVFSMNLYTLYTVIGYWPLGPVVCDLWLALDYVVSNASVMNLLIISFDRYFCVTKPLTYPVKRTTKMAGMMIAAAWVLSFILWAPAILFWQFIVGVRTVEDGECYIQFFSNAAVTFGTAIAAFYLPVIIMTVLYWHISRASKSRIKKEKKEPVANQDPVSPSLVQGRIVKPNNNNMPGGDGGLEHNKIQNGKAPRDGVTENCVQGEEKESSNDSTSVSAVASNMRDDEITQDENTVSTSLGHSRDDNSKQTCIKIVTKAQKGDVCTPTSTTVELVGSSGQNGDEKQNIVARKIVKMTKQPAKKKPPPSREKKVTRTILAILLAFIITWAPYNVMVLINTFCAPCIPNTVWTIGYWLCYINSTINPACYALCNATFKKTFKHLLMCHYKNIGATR

[3] = target: 5-hydroxytryptamine receptor 2A (Rattus norvegicus, UniProt P14842); experiment: biochemical
Chain of 5-hydroxytryptamine receptor 2A (P14842 whole entry): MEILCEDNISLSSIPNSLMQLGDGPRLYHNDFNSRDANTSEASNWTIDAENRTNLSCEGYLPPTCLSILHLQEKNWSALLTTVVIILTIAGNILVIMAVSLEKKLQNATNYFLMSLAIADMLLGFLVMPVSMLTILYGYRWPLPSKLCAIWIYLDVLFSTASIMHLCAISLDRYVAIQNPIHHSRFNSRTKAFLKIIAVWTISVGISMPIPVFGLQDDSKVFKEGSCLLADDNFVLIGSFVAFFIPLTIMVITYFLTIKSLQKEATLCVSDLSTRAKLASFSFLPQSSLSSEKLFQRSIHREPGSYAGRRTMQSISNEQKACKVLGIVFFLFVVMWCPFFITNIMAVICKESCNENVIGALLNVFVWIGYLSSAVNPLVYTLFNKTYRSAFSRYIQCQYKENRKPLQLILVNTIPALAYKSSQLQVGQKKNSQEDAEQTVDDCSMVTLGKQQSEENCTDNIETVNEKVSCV

[4] = target: T3, Adrenergic receptor alpha-1 (Rattus norvegicus, UniProt P15823+P23944+P43140); experiment: Compound was tested for the binding affinity against rat cortical Alpha-1 adrenergic receptor by radioligand [3H]prazosin binding assay.; assay type: protein assay
T3 sequence (P15823 whole entry): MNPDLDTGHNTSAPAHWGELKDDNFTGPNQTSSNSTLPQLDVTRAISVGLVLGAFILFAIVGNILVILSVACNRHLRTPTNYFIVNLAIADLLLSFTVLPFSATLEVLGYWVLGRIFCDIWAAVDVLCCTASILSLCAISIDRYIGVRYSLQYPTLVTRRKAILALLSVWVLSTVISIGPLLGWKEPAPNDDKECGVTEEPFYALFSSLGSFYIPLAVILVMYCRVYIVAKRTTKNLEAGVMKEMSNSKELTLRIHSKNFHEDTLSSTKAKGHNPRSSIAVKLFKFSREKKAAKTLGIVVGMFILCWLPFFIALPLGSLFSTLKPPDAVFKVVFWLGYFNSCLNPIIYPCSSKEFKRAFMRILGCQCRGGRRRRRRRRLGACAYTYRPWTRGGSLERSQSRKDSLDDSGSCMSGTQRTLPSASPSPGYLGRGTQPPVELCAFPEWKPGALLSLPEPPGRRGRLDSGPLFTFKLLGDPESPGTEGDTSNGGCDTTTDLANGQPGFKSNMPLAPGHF
T3 sequence (P23944 whole entry): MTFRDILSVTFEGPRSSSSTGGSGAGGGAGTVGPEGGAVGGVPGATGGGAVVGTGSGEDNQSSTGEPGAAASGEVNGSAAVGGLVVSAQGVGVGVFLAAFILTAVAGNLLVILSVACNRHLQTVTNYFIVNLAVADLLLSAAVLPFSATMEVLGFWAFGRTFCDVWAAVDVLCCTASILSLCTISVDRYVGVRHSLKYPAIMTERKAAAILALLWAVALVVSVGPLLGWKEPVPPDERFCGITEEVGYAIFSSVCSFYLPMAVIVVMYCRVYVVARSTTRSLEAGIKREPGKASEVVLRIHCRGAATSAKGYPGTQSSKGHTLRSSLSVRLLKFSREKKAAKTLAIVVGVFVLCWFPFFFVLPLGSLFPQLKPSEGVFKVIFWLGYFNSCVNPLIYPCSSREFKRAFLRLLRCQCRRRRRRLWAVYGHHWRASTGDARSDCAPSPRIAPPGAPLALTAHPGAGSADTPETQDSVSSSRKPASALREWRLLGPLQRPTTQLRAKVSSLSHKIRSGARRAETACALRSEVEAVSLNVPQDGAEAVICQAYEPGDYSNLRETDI
T3 sequence (P43140 whole entry): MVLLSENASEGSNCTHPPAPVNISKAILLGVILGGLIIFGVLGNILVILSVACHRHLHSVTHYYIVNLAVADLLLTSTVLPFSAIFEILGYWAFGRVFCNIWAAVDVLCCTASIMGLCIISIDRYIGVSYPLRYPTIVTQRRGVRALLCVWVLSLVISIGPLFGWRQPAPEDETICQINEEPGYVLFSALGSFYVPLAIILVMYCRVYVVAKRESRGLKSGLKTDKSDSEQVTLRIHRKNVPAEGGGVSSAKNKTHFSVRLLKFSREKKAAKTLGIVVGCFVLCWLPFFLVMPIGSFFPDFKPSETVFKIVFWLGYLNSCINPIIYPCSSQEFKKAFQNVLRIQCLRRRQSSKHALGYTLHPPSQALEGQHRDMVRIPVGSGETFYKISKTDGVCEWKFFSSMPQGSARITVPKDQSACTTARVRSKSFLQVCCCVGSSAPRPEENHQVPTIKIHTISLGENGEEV

D(1A) dopamine receptor = D(1A) dopamine receptor (Homo sapiens, UniProt P21728); experiment: Compound was tested for the Binding affinity against Human cloned Dopamine receptor D1 by Radio ligand ([3H]SCH-23390) binding assay
Chain of D(1A) dopamine receptor (P21728 whole entry): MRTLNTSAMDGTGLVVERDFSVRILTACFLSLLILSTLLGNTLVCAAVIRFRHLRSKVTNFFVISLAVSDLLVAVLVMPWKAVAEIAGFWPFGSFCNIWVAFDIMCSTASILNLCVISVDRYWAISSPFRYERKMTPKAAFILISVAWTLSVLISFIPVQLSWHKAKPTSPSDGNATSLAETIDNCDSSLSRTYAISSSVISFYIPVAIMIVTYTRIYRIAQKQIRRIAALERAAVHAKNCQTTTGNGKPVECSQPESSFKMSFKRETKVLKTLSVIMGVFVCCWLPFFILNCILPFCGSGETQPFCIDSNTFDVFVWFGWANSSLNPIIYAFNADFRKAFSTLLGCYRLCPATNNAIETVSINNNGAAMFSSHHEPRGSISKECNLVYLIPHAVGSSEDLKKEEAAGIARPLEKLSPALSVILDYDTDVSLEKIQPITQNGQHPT

Histamine H1 receptor = Histamine H1 receptor (Rattus norvegicus, UniProt P31390); experiment: Compound was tested for the Binding affinity against rat cortical H1 receptor by Radio ligand [3H]pyrilamine binding assay
Chain of Histamine H1 receptor (P31390 whole entry): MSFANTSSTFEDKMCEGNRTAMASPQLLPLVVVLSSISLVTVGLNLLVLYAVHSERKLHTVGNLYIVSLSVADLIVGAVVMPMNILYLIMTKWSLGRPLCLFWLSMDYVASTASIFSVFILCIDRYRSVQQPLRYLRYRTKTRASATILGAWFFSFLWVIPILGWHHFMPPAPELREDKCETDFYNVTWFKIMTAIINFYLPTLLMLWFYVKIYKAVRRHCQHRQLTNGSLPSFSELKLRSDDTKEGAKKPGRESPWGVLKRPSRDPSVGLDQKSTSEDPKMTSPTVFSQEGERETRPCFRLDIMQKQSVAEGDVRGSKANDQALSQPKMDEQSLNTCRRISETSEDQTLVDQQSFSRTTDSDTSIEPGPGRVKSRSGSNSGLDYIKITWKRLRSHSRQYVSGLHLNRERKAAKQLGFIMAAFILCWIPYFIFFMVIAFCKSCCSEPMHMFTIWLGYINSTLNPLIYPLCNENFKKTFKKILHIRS

Mus musculus = experiment: Compound was tested for inhibition of Apomorphine induced climbing in Mice on subcutaneous administration; assay type: functional; conditions: sc
Adrenergic receptor beta = Adrenergic receptor beta (Rattus norvegicus, UniProt P18090+P10608+P26255); experiment: Compound was tested for the Binding affinity against rat cortical Beta adrenergic receptor by Radio ligand [3H]dihydroalprenolol binding assay.; assay type: protein assay
D(3) dopamine receptor = D(3) dopamine receptor (Rattus norvegicus, UniProt P19020); experiment: biochemical
Chain of D(3) dopamine receptor (P19020 whole entry): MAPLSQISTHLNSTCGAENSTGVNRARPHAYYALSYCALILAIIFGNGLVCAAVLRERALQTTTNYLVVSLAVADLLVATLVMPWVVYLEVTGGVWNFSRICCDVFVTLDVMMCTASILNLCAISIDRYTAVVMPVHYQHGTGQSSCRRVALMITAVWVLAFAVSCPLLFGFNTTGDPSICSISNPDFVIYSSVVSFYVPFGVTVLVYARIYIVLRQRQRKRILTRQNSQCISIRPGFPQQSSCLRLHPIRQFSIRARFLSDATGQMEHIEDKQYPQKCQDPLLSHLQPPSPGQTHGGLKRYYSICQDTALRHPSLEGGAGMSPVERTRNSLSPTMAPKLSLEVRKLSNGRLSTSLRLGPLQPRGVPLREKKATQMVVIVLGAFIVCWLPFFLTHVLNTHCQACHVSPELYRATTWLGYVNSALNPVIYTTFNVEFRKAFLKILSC
Description: Binding affinity to rat Dopamine receptor D3 expressed in CHO cells was determined using [125 I] iodosulpride as radioligand

Chain of D(1B) dopamine receptor (P21918 whole entry): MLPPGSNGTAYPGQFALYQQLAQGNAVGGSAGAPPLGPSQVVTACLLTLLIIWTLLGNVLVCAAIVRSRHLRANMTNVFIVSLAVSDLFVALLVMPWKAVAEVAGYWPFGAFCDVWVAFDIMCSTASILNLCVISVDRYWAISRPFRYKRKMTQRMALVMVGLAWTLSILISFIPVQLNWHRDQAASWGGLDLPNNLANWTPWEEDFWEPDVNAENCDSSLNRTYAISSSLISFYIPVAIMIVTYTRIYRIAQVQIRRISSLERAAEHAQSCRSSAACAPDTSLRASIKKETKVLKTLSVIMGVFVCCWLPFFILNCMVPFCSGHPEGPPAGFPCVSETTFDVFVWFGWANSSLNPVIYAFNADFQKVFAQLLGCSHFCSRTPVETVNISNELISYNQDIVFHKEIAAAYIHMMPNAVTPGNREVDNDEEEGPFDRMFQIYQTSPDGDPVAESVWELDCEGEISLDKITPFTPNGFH

Ki (D(1B) dopamine receptor): > 10 µM | Ki [1]: 4 µM | Ki [2]: 7.3 µM | Ki [3]: > 10 µM | Ki [4]: 5.3 µM | Ki (D(1A) dopamine receptor): > 10 µM | Ki (Histamine H1 receptor): > 10 µM | Ki (Adrenergic receptor beta): > 10 µM | Ki (D(3) dopamine receptor): 0.021 µM
SMILES: COc1cc(NC(=O)C2CC2)c(Cl)cc1C(=O)N[C@H]1CCN(Cc2ccccc2)C1
ED50 (Mus musculus): 0.32 mg/kg
